The values below come from the supplement of paper PMC10307832.

Common to all, as to assay: relative viability (nuclei count vs DMSO), 5 days (fraction); higher = more cells survive
Compound in assay [1]: CS(=O)(=O)c1ccc(-c2cnc(N)c(C(=O)Nc3ccccc3)n2)cc1 [VE-821]
In outline: (§1)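 Nuclei counted with MetaXpress define viability as the ratio of treated to vehicle wells, given as a median across plates. The lung cancer cell lines were in 1536-well plates, pinned with five √10-spaced library-drug doses and imaged at 4× after 5 days and Hoechst staining. Plates passed with control CV below 25% and at least one doubling.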

Compound in assay [2]: CS(=O)(=O)c1ccc(C(=O)Nc2ccc(Cl)c(-c3ccccn3)c2)c(Cl)c1 [Vismodegib]
A digest of the protocol:
as §1

Compound in assay [3]: N#CC[C@H](C1CCCC1)n1cc(-c2ncnc3[nH]ccc23)cn1 [Ruxolitinib]
In outline:
as §1

Compound in assay [4]: CS(=O)(=O)c1ccc(C(=O)Nc2ccc(Cl)c(-c3ccccn3)c2)c(Cl)c1 [Vismodegib] + Cc1nc(Nc2ncc(C(=O)Nc3c(C)cccc3Cl)s2)cc(N2CCN(CCO)CC2)n1 [Dasatinib] (partner 0.075 µM)
A digest of the protocol:
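Relative viability divides the nuclei count in treated wells by that in vehicle wells. Lung cancer cell lines were seeded in 1536-well plates, dosed by pin tool the next day, and fixed and stained after 5 days in one step with final 0.05% Triton X-100, 1% formaldehyde and 1 ug/ml Hoechst. Dosing was a single drug or a fixed anchor-drug dose plus five library-drug doses (not always all listed) in √10 steps, and values are medians of duplicate plates imaged at 4×.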

Take NCI-H1755: the relative viability came to 1.04 in assay [1] (0.08 µM); 0.966 in assay [1] (0.253 µM); 0.905 in assay [1] (0.8 µM); 0.957 in assay [1] (2.53 µM); 0.873 in assay [1] (8 µM); 0.983 in assay [2] (0.08 µM). Moreover, the relative viability in assay [2] (0.253 µM) came out at 0.982; in assay [2] (0.8 µM), 1.01; in assay [2] (2.53 µM), 1; in assay [2] (8 µM), 0.982; in assay [3] (0.08 µM), 0.974; in assay [3] (0.253 µM) it was 0.989. Moreover, the relative viability turned out to be 1.03 in assay [3] (0.8 µM); 0.916 in assay [3] (2.53 µM); 0.825 in assay [3] (8 µM); 0.423 in assay [4] (first compound 0.08 µM); 0.392 in assay [4] (first compound 0.253 µM); 0.412 in assay [4] (first compound 0.8 µM). Further, the results for the relative viability in assay [4] (first compound 2.53 µM) and in assay [4] (first compound 8 µM) were 0.448 and 0.441, respectively.

For NCI-H1792, the relative viability in assay [1] (0.08 µM) was 1.26; in assay [1] (0.253 µM), 0.817; in assay [1] (0.8 µM), 0.842; in assay [1] (2.53 µM), 1.37; in assay [1] (8 µM) it was 0.824; in assay [2] (0.08 µM), 0.854. Further, the relative viability in assay [2] (0.253 µM) amounted to 0.877; in assay [2] (0.8 µM), 0.941; in assay [2] (2.53 µM), 0.928; in assay [2] (8 µM), 0.922; in assay [3] (0.08 µM) it was 0.871; in assay [3] (0.253 µM) it was 0.761. The relative viability in assay [3] (0.8 µM) was 0.856; in assay [3] (2.53 µM), 0.822; in assay [3] (8 µM) it was 0.561; in assay [4] (first compound 0.08 µM), 0.697; in assay [4] (first compound 0.253 µM) it was 0.726; in assay [4] (first compound 0.8 µM), 0.673. For the same cell line, the relative viability in assay [4] (first compound 2.53 µM) is 0.505; in assay [4] (first compound 8 µM), 0.655.

As for NCI-H1793, the relative viability in assay [1] (0.08 µM) amounted to 0.996; in assay [1] (0.253 µM), 0.744; in assay [1] (0.8 µM), 0.747; in assay [1] (2.53 µM), 1.16; in assay [1] (8 µM) it was 0.713; in assay [2] (0.253 µM) it was 0.857. Moreover, the relative viability in assay [2] (0.8 µM) was found to be 0.96; in assay [2] (2.53 µM), 0.904; in assay [2] (8 µM), 0.784; in assay [3] (0.08 µM) it was 0.972; in assay [3] (0.253 µM), 0.928; in assay [3] (0.8 µM) it was 1.12. The relative viability was determined as 0.946 in assay [3] (2.53 µM); 0.699 in assay [3] (8 µM); 0.408 in assay [4] (first compound 0.253 µM); 0.374 in assay [4] (first compound 0.8 µM); 0.416 in assay [4] (first compound 2.53 µM); 0.365 in assay [4] (first compound 8 µM).

For NCI-H1915, the relative viability in assay [1] (0.08 µM) came out at 1.07; in assay [1] (0.253 µM), 0.949; in assay [1] (0.8 µM), 1.02; in assay [1] (2.53 µM), 1.05; in assay [1] (8 µM) it was 0.755; in assay [2] (0.08 µM), 1.02. The relative viability in assay [2] (0.253 µM) was 1.01; in assay [2] (0.8 µM), 0.957; in assay [2] (2.53 µM), 0.983; in assay [2] (8 µM), 0.907; in assay [3] (0.08 µM), 0.983; in assay [3] (0.253 µM), 1.03. The relative viability in assay [3] (0.8 µM) is 1.07; in assay [3] (2.53 µM), 0.901; in assay [3] (8 µM), 0.85; in assay [4] (first compound 0.08 µM) it was 0.346; in assay [4] (first compound 0.253 µM) it was 0.296; in assay [4] (first compound 0.8 µM), 0.295. Further, the relative viability turned out to be 0.266 in assay [4] (first compound 2.53 µM) and 0.326 in assay [4] (first compound 8 µM).

For the cell line NCI-H1944, the relative viability worked out at 1.18 in assay [1] (0.08 µM); 0.933 in assay [1] (0.253 µM); 0.873 in assay [1] (0.8 µM); 1.08 in assay [1] (2.53 µM); 0.425 in assay [1] (8 µM); 1.05 in assay [2] (0.08 µM). Further, the relative viability was found to be 1.02 in assay [2] (0.253 µM); 0.966 in assay [2] (0.8 µM); 0.904 in assay [2] (2.53 µM); 1.04 in assay [2] (8 µM); 1.02 in assay [3] (0.08 µM); 0.927 in assay [3] (0.253 µM). Besides, the relative viability in assay [3] (0.8 µM) was 0.968; in assay [3] (2.53 µM), 0.875; in assay [3] (8 µM), 0.863; in assay [4] (first compound 0.08 µM), 0.228; in assay [4] (first compound 0.253 µM) it was 0.213; in assay [4] (first compound 0.8 µM), 0.201. In addition, the relative viability is 0.242 in assay [4] (first compound 2.53 µM) and 0.204 in assay [4] (first compound 8 µM).

For NCI-H1975, the relative viability turned out to be 1.01 in assay [1] (0.08 µM); 0.845 in assay [1] (0.253 µM); 0.811 in assay [1] (0.8 µM); 0.795 in assay [1] (2.53 µM); 0.739 in assay [1] (8 µM); 0.901 in assay [2] (0.08 µM). Besides, the relative viability was determined as 0.925 in assay [2] (0.253 µM); 1.03 in assay [2] (0.8 µM); 1.02 in assay [2] (2.53 µM); 1.01 in assay [2] (8 µM); 0.893 in assay [3] (0.08 µM); 0.92 in assay [3] (0.253 µM). Moreover, the relative viability is 0.973 in assay [3] (0.8 µM); 0.83 in assay [3] (2.53 µM); 0.649 in assay [3] (8 µM); 0.347 in assay [4] (first compound 0.08 µM); 0.338 in assay [4] (first compound 0.253 µM); 0.371 in assay [4] (first compound 0.8 µM). For the same cell line, the relative viability in assay [4] (first compound 2.53 µM) came out at 0.267; in assay [4] (first compound 8 µM), 0.348.

With NCI-H1993, the relative viability in assay [1] (0.08 µM) turned out to be 0.92; in assay [1] (0.253 µM), 0.844; in assay [1] (0.8 µM), 0.916; in assay [1] (2.53 µM), 0.929; in assay [1] (8 µM), 0.692; in assay [2] (0.08 µM), 0.807. For the same cell line, the relative viability in assay [2] (0.253 µM) amounted to 0.916; in assay [2] (0.8 µM), 0.859; in assay [2] (2.53 µM), 0.875; in assay [2] (8 µM), 0.87; in assay [3] (0.08 µM), 0.872; in assay [3] (0.253 µM), 0.774. The relative viability was 1.04 in assay [3] (0.8 µM); 1 in assay [3] (2.53 µM); 0.771 in assay [3] (8 µM); 0.499 in assay [4] (first compound 0.08 µM); 0.763 in assay [4] (first compound 0.253 µM); 0.562 in assay [4] (first compound 0.8 µM). In addition, the relative viability is 0.565 in assay [4] (first compound 2.53 µM) and 0.554 in assay [4] (first compound 8 µM).
